From patent US11056705B2, “Organic anolyte materials for flow batteries” (THE REGENTS OF THE UNIVERSITY OF MICHIGAN, priority 2015, dated 2021)
Several values for one entry are separate records, joined by “and”; a condition that tells them apart may be missing. Identical values can stand only once.

Legend:
[1] = Cyclic voltammetry (CV) of anolyte candidates in a three-electrode cell; format: physicochemical; details: for current ratio i9a(−)/iLi-9a: 0.1 M LiBF4 in MeCN; for baseline (initial) current at starting potential of +1 V: MeCN/LiBF4, 0.01 M, 100 mV/s
[2] = Simulation of CVs fit to experimental data: Li+ association/dissociation with charged anolyte; format: physicochemical
Description: To obtain values for the rates for association as well as the equilibrium constant for formation of Li-9a, the redox system proposed in Scheme 9 was computationally modeled. Diffusion constants for the anolyte were calculated to be on the order of 2×10^−9 m^2/s by analysis of changes in the potential at the first reductive couple with variable scan rates. This value was applied for all species in the simulation based on their similar molecular weights. A resistance of 400 ohms and no capacitance was simulated for all couples. With these parameters, the simulations were fit to experimental data acquired at variable scan rates (FIG. 9) in order to estimate the rate constants for association and dissociation of Li^+. The experimentally measured CVs features were accurately reproduced when the rate constant for Li^+ coordination was 10 M^−1s^−1 and the rate constant for dissociation was 0.5 s^−1. These rate constants indicate that the equilibrium constant for binding of Li^+ to 9a^(−) is on the order of 20 M^−1.
This system was further investigated at higher concentrations of Li^+. CVs were acquired at concentrations of LiBF4 ranging from 57 mM to 260 mM with a constant 0.1 M concentration of 9a (FIG. 9b; solid lines). As expected, higher concentrations of LiBF4 led to greater currents from the oxidation of Li-9a. The calculated rate constants (ki=10 M^−1s^−1, k^−1=0.5 s^−1) were employed to model the effects of LiBF4 concentration on the current peak-heights. The results are illustrated in FIG. 9b (dashed lines) and are in full agreement with the experimentally measured CVs.

physchem = details: organic solvent or mixture, thermodynamic from solid
Description: (§1) The solubilities of 10a, 10a^(•), and Na-10a^(−) were determined by UV-vis spectroscopy in MeCN under an inert atmosphere.
(§2) A saturated solution of 10a^(•) was prepared and analyzed at 322 nm by UV-vis spectroscopy.

[3] = Stability of solutions in MeCN monitored by 1H NMR or UV-vis spectroscopy; format: physicochemical
Description: The stabilities of 10a, 10a^(•) and Na-10a^(−) were monitored as solutions in MeCN by ^1H NMR spectroscopy or UV-vis spectroscopy. Separate solutions of 10a, 10a^(•) and Na-10a^(−) in MeCN were prepared at 480 mM, 540 mM and 39 mM concentrations, respectively. The parent compound 10a was monitored by ^1H NMR spectroscopy against an internal standard of 1,3,5-trimethoxybenzene. […] Solutions of the reduced species 10a^(•) and Na-10a^(−) were stored at room temperature under nitrogen, and the concentrations of the solutions were measured periodically over 36 h or 48 h by UV-vis spectroscopy (FIG. 13).

[4] = Solubility in MeCN by UV-vis spectroscopy under inert atmosphere
Description: as §1, §2

[5] = MeCN/LiBF4, cathodic sweep starting at +1 V
[6] = simulation fit to experimental CVs at variable scan rates, MeCN/LiBF4

current ratio i9a(−)/iLi-9a ([1]; 50 mV/s) | current ratio i9a(−)/iLi-9a ([1]; 200 mV/s) | current ratio i9a(−)/iLi-9a ([1]; 500 mV/s) | potential at which charged anolyte is oxidized (discharged) ([1]; MeCN, 0.1 M LiBF4) [V] | current at +0.4 V (lithium adduct formation) ([1]; MeCN, 0.1 M LiBF4, 200 mV/s) | first single-electron reduction (step i) [1, 5] [V] | second single-electron reduction (step ii) [1, 5] [V] | diffusion constant ([2]; from changes in potential at the first reductive couple with variable scan rates) | equilibrium constant for binding of Li^+ ([2]; from the fitted rate constants) [M⁻¹] | difference of first reduction potential, 9a versus 10a ([1]; MeCN/LiBF4) [V] | peak height ratios of two reductive couples ([1]; MeCN/LiBF4) | second reduction more positive than that of 9a ([1]; MeCN/LiBF4) [V] | baseline (initial) current at starting potential of +1 V [1] | solubility (physchem) [mM] | decomposition in solution ([3]; 480 mM in MeCN, 1H NMR vs internal standard, four days, in the presence of air and moisture) | solubility (saturation concentration) [4] [mM] | concentration of solution on storage ([3]; MeCN, room temperature under nitrogen, UV-vis over 36 h or 48 h, 540 mM (10a•), 39 mM (Na-10a−)) | Structure (SMILES) | rate constant for Li^+ coordination [2, 6] [M⁻¹ s⁻¹] | rate constant for dissociation [2, 6] [s⁻¹]
32 | 11 | 6 | −1.7 | almost no current was detected | −1.1 | −1.9 | ~2×10^−9 m^2/s | ~20 |  |  |  |  |  |  |  |  | COC(=O)c1cc[n+](C)cc1.F[B-](F)(F)F [Compound 9a] | 10 | 0.5
 |  |  |  |  |  |  |  |  | 0.1 | close to 1 | 0.4 | no analogous current is observed | 1600 ± 100 | No measurable decomposition |  |  | CC(=O)c1cc[n+](C)cc1 [Compound 10a] |  | 
 |  |  |  |  |  |  |  |  |  |  |  | 40-50 μA and 45 μA |  |  | 62 ± 7 | did not change | CC([O-])=C1C=CN(C)C=C1.[Na+] [Na-10a^(−)] |  | 
